Assay results as given in patent US12582654B2, “Cyano-substituted pyridine and cyano-substituted pyrimidine compound and preparation method therefor and application thereof” (BEIJING SCITECH-MQ PHARMACEUTICALS LIMITED, priority 2019, dated 2026).

Tests used:
Ba/F3 ETV6-FGFR4 cells = target: T1, Ba/F3 ETV6-FGFR4 cells (Homo sapiens, UniProt P22455); experiment: Inhibition of cell proliferation (CCK-8), Ba/F3 ETV6-FGFR4 cells; assay type: cell-based; conditions: 72 hours of incubation, read-out: Ba/F3 ETV6-FGFR4 IC50
T1 construct: fused on or other part: N-terminal part of ETV6 (TEL), the oligomerising partner that makes the FGFR4 kinase constitutively active; P41212 (Transcription factor ETV6)
Description: (§1) Compounds were assayed for inhibiting cell proliferation, and the specific method was as follows: • 1. Cells were cultured to a logarithmic growth phase, pipetted evenly, transferred to a 15 mL centrifuge tube, and centrifuged at 1000 rpm at room temperature for 4 minutes; • 2. The supernatant was discarded; 5 mL of complete medium was added and pipetted evenly; 10 μL of cell suspension was weighed, mixed well with 10 μL of 0.4% trypan blue, and counted under a cell counter; the proportion of living cells was ensured to be above 90%; • 3. The cell suspension was seeded into a 96-well plate (80 μL of cell suspension per well) according to the conditions shown in Table 5; in the outer 36 wells of the 96-well plate, no cells were added but only sterile water was added; only the inner 60 wells were used for cell assay and control; • 4. 5× compound dilution: the compounds were serially diluted 4-fold to give a total of 9 concentrations; 80-fold overall dilution was completed with complete medium, the resulting concentration was 5 times the final drug concentration, and DMSO concentration was 1.25%; • 5. 20 μL of the corresponding compounds with different concentrations were added to each well of assay wells of the 96-well plate; 20 μL of complete medium was added to positive and negative control wells and shaken well; and the final concentration of DMSO in each well was 0.25%; • 6. After 72 hours of incubation, 10 μL of CCK-8 reagent was added to each well and further incubated at 37° C. for 1-2 hours; and the OD value was read at 450 nm; 7. Cell survival rate (%)=[(As−Ab)/(Ac−Ab)]*100% • As: Assay well (medium containing cells, CCK-8, compound) • Ac: Control well (medium containing cells, CCK-8) • Ab: Blank well (medium without cell and compound, CCK-8) • 8. The values were imported into Graphpad Prism 5 software for IC50 calculation.

[1] = target: T2, Ba/F3 ETV6-FGFR4-V550L cells (Homo sapiens, UniProt P22455, V550L, cells depend on it); experiment: Inhibition of cell proliferation (CCK-8), Ba/F3 ETV6-FGFR4-V550L cells; assay type: cell-based; conditions: 72 hours of incubation, read-out: Ba/F3 ETV6-FGFR4-V550L IC50
T2 construct: fused on or other part: N-terminal part of ETV6 (TEL), the oligomerising partner of the fusion; already named as the first entry; P41212 (Transcription factor ETV6)
Description: as §1

FGFR4 kinase = FGFR4 kinase (Homo sapiens, UniProt P22455); experiment: Inhibition of FGFR4 kinase activity (ULight-labeled JAK-1 peptide, EU665/EU615 reading); assay type: biochemical; conditions: FGFR4 kinase 3.85 nM, ATP 100 μM, enzymatic reaction 2 hours
Description: (§2) Assay of activity of small molecule compounds on inhibiting FGFR4 kinase and FGFR4 V550L mutant kinase. The assay method was as follows:
(§3) 1) Dilution of Compounds:
(§4) In a 96-well plate a, the compounds were serially diluted 3-fold with DMSO to form 11 concentrations, and the 12th concentration was pure DMSO (as a positive control); In a new 96-well plate b, the above solutions were diluted 25-fold with ultrapure water (DMSO concentration was 4%).
(§5) 2) Transferring Compounds to a 384-Well Plate:
(§6) The above solutions of compounds diluted with ultrapure water in the 96-well plate b were pipetted into corresponding wells of a 384-well plate.
(§7) 3) Adding 4× kinase solution: 2.5 μl of the above 4× kinase solutions were pipetted with a multi-channel pipette into corresponding reaction wells of the 384-well plate, and the mixture was mixed well and pre-reacted at room temperature for 5 minutes.
(§8) 4) Adding 2× substrate/ATP mixture: 5 μl of the above 2× substrate/ATP mixtures were pipetted with a multi-channel pipette into corresponding reaction wells of the 384-well plate.
(§9) 5) Negative control: negative control wells were set up in the 384-well plate by adding 2.5 μl of 4× substrate, 2.5 μl of 4× enzyme solution, 2.5 μl of 1× kinase Assay Buffer and 2.5 μl of ultrapure water containing 4% DMSO to each well.
(§10) 6) Centrifuging, mixing well, and reacting at room temperature in the dark for 2 hours.
(§11) 7) Terminating the Enzymatic Reaction:
(§12) 5 μl of the above 4× stop solutions were pipetted into corresponding wells of the 384-well plate, and the mixture was centrifuged, mixed well, and then reacted at room temperature for 5 minutes.
(§13) 8) Development of the Reaction:
(§14) 5 μl of the above 4× detection solutions were pipetted into corresponding wells of the 384-well plate, and the mixture was centrifuged, mixed well, and then reacted at room temperature for 1 hour.
(§15) 9) The 384-well plate was placed into a plate reader, and the signal was detected using the appropriate program.
(§16) 10) Analysis of IC50: Reading of well=10000*EU665 value/EU615 value Inhibition rate=(reading of positive control well−reading of assay well)/(reading of positive control well−reading of negative control well)*100%
(§17) The corresponding IC50 can be calculated by inputting the drug concentrations and corresponding inhibition rates into GraphPad Prism 5 and processing.
Assay Conditions for Screening FGFR4 Kinase Activity Inhibitory Molecule:
The final concentration of FGFR4 kinase in the reaction system was 3.85 nM, the final concentration of ATP was 100 μM, the final concentration of substrate ULight™-labeled JAK-1 (Tyr1023) Peptide was 100 nM, and the time for enzymatic reaction was 2 hours.
The highest final concentration of the compound in the reaction system was 2.5 μM. After serial 3-fold dilution, there were 11 concentrations in total, and the lowest final concentration was 0.042 nM. The final concentration of DMSO was 1%.

FGFR4 V550L kinase = FGFR4 V550L kinase (Homo sapiens, UniProt P22455, V550L); experiment: Inhibition of FGFR4 V550L mutant kinase activity (ULight-labeled PolyGT, EU665/EU615 reading); assay type: biochemical; conditions: FGFR4 V550L kinase 1 nM, ATP 10 μM, enzymatic reaction 2 hours
Description: as §2, §3, §4, §5, §6, §7, §8, §9, §10, §11, §12, §13, §14, §15, §16, §17
Assay Conditions for Screening FGFR4 V550L Kinase Activity Inhibitory Molecule:
The final concentration of FGFR4 V550L kinase in the reaction system was 1 nM, the final concentration of ATP was 10 μM, the final concentration of substrate ULight™-labeled PolyGT was 100 nM, and the time for enzymatic reaction was 2 hours.
The highest final concentration of the compound in the reaction system was 2.5 μM. After seral 3-fold dilution, there were 11 concentrations in total, and the lowest final concentration was 0.042 nM. The final concentration of DMSO was 1%.

FGFR4 V550L kinase, sequence (P22455 22-802 V550L): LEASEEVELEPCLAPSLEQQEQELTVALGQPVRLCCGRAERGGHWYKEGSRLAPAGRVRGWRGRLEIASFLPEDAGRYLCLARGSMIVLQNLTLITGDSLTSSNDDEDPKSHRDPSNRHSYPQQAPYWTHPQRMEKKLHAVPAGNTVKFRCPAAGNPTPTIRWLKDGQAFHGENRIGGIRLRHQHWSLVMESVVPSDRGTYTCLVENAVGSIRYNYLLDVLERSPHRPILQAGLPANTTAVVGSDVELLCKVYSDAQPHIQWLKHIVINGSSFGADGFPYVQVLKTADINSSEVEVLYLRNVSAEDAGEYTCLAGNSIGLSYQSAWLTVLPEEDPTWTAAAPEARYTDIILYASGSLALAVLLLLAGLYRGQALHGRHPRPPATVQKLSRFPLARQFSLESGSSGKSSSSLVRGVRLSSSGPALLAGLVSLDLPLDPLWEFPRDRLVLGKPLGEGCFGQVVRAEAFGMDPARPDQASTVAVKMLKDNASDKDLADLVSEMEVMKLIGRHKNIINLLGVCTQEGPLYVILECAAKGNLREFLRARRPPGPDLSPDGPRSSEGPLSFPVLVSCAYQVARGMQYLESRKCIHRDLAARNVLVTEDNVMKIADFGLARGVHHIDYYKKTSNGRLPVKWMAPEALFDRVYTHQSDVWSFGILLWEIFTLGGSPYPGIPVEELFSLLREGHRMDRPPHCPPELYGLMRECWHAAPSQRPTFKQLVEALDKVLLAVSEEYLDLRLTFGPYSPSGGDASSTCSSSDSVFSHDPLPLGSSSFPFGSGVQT
T2 sequence (P22455 whole entry V550L, the tested form may be a part): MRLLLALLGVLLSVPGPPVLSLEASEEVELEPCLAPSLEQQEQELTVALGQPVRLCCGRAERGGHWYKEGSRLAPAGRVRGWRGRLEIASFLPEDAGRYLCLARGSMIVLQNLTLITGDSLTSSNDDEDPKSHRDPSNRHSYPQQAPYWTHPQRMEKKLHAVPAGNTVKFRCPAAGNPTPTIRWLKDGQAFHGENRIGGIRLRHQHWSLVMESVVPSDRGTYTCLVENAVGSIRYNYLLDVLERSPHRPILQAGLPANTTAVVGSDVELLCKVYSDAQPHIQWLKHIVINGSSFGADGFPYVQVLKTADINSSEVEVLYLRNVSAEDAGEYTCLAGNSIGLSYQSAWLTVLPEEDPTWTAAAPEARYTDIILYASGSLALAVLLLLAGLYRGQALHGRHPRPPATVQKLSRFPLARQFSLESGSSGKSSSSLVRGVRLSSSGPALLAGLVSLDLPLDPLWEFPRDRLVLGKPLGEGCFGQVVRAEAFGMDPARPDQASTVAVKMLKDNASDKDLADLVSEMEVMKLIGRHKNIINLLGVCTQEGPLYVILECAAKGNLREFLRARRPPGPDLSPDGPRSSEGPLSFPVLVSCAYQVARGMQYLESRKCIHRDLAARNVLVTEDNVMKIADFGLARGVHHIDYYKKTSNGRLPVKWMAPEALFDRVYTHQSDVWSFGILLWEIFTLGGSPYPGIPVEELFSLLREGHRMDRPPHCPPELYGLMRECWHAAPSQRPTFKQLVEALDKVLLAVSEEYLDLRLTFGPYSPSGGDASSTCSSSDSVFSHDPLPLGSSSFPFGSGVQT
T1 sequence (P22455 whole entry, change not shown, the tested form may be a part): as the sequence (P22455 whole entry V550L, the tested form may be a part) above, with L550V counted along it
FGFR4 kinase, sequence (P22455 22-802): as the sequence (P22455 22-802 V550L) above, with L529V counted along it

Row | GI50 (Ba/F3 ETV6-FGFR4 cells) [nM] | GI50 [1] [nM] | IC50 (FGFR4 kinase) [nM] | IC50 (FGFR4 V550L kinase) [nM] | SMILES
1 | ≤ 10 | ≤ 10 | 50 to 100 | 10 to 50 | C=CC(=O)Nc1cc(N2CCN(CC)CC2)c(F)cc1Nc1ncc(C#N)c(Nc2ccccc2OC(C)C)n1 [Example 15, N-(2-((5-cyano-4-((2-isopropoxyphenyl)amino)pyrimidin-2-yl)amino)-5-(4-ethylpiperazin-1-yl)-4-fluorophenyl) acrylamide]
2 | ≤ 10 | ≤ 10 | 10 to 50 | ≤ 10 | C=CC(=O)Nc1cc(N2CCN(CC)CC2)ccc1Nc1ncc(C#N)c(Nc2ccc(C)cc2OC(C)C)n1 [Example 30, N-(2-((5-cyano-4-((2-isopropoxy-4-methylphenyl)amino)pyrimidin-2-yl)amino)-5-(4-ethylpiperazin-1-yl)phenyl) acrylamide]
3 | ≤ 10 | ≤ 10 | ≤ 10 | ≤ 10 | C=CC(=O)Nc1cc(N2CCC(N3CCN(C)CC3)CC2)ccc1Nc1ncc(C#N)c(Nc2ccccc2OC(C)C)n1 [Example 6, N-(2-((5-cyano-4-((2-isopropoxyphenyl)amino)pyrimidin-2-yl)amino)-5-(4-(4-methylpiperazin-1-yl)piperidin-1-yl)phenyl) acrylamide]
4 | ≤ 10 | ≤ 10 | ≤ 10 | ≤ 10 | C=CC(=O)Nc1cc(N2CCN(C(C)C)CC2)ccc1Nc1ncc(C#N)c(Nc2ccccc2OC(C)C)n1 [Example 37, N-(2-((5-cyano-4-((2-isopropoxyphenyl)amino)pyrimidin-2-yl)amino)-5-(4-isopropylpiperazin-1-yl)phenyl) acrylamide]
5 | ≤ 10 | ≤ 10 | ≤ 10 | 10 to 50 | C=CC(=O)Nc1cc(N2CCN(CC)CC2)ccc1Nc1ncc(C#N)c(Nc2ccc(OCCOC)cc2OC(C)C)n1 [Example 33, N-(2-((5-cyano-4-((2-isopropoxy-4-(2-methoxyethoxy)phenyl)amino)pyrimidin-2-yl)amino)-5-(4-ethylpiperazin-1-yl)phenyl) acrylamide]
6 | ≤ 10 | 10 to 50 | 50 to 100 | 10 to 50 | C=CC(=O)Nc1cc(N2CCN(C)CC2)c(C)cc1Nc1ncc(C#N)c(Nc2ccccc2OC(C)C)n1 [Example 7, N-(2-((5-cyano-4-((2-isopropoxyphenyl)amino)pyrimidin-2-yl)amino)-4-methyl-5-(4-methylpiperazin-1-yl)phenyl) acrylamide]
7 | ≤ 10 | ≤ 10 | 10 to 50 | 10 to 50 | C=CC(=O)Nc1cc(N2CCC(N3CCN(C)C(=O)C3)CC2)ccc1Nc1ncc(C#N)c(Nc2ccc(F)cc2OC(C)C)n1 [Example 45, N-(2-((5-cyano-4-((4-fluoro-2-isopropoxyphenyl)amino)pyrimidin-2-yl)amino)-5-(4-(4-methyl-3-oxopiperazin-1-yl)piperidin-1-yl)phenyl) acrylamide]
8 | ≤ 10 | ≤ 10 | 10 to 50 | 10 to 50 | C=CC(=O)Nc1cc(N2CCC(N3CCCCC3)CC2)c(F)cc1Nc1ncc(C#N)c(Nc2ccccc2OC(C)C)n1 [Example 18, N-(5-([1,4‘- bipiperidin]-1′-yl)-2-((5-cyano-4-((2-isopropoxyphenyl)amino)pyrimidin-2-yl)amino)-4-fluorophenyl) acrylamide]
9 | – | – | 10 to 50 | 10 to 50 | C=CC(=O)Nc1cc(N2CCC(N3CCOCC3)CC2)c(C)cc1Nc1ncc(C#N)c(Nc2ccccc2OC(C)C)n1 [Example 12, N-(2-((5-cyano-4-((2-isopropoxyphenyl)amino)pyrimidin-2-yl)amino)-4-methyl-5-(4-morpholinopiperidin-1-yl)phenyl) acrylamide]
10 | ≤ 10 | 10 to 50 | – | 10 to 50 | C=CC(=O)Nc1cc(N2CCN(CC)CC2)ccc1Nc1ncc(C#N)c(Nc2ccc(C#N)cc2OC(C)C)n1 [Example 32, N-(2-((5-cyano-4-((4-cyano-2-isopropoxyphenyl)amino)pyrimidin-2-yl)amino)-5-(4-ethylpiperazin-1-yl)phenyl) acrylamide]
11 | – | – | 10 to 50 | – | C=CC(=O)Nc1cc(N2CCC(N3CCN(C)CC3)CC2)ccc1Nc1cc(Nc2ccccc2OC(C)C)c(C#N)cn1 [Example 83, N-(2-((5-cyano-4-((2-isopropoxyphenyl)amino)pyridin-2-yl)amino)-5-(4-(4-methylpiperazin-1-yl)piperidin-1-yl)phenyl)acrylamide]
12 | – | – | 10 to 50 | 10 to 50 | C=CC(=O)Nc1cc(N2CCC(N(C)C)CC2)c(C)cc1Nc1ncc(C#N)c(Nc2ccccc2OC(C)C)n1 [Example 9, N-(2-((5-cyano-4-((2-isopropoxyphenyl)amino)pyrimidin-2-yl)amino)-5-(4-(dimethylamino)piperidin-1-yl)-4-methylphenyl) acrylamide]
13 | 10 to 50 | 10 to 50 | 10 to 50 | – | C=CC(=O)Nc1cc(N2CCC(N3CCCCC3)CC2)c(C)cc1Nc1ncc(C#N)c(Nc2ccccc2OC(C)C)n1 [Example 11, N-(5-([1,4‘- bipiperidin]-1′-yl)-2-((5-cyano-4-((2-isopropoxyphenyl)amino)pyrimidin-2-yl)amino)-4-methylphenyl) acrylamide]
14 | – | – | 10 to 50 | – | C=CC(=O)Nc1cc(N2CCC(N(C)C)CC2)ccc1Nc1cc(Nc2ccccc2OC(C)C)c(C#N)cn1 [Example 82, N-(2-((5-cyano-4-((2-isopropoxyphenyl)amino)pyridin-2-yl)amino)-5-(4-(dimethylamino)piperidin-1-yl)phenyl)acrylamide]
15 | – | – | 10 to 50 | – | C=CC(=O)Nc1cc(N2CCN(CC)CC2)ccc1Nc1cc(Nc2ccccc2OC(C)C)c(C#N)cn1 [Example 84, N-(2-((5-cyano-4-((2-isopropoxyphenyl)amino)pyridin-2-yl)amino)-5-(4-ethylpiperazin-1-yl)phenyl)acrylamide]
